Data on two compounds can be found in patent US20140113958A1, “HCV Combination Therapy” (priority 2011, published 2014).

Where “and” joins values, the source holds several entries; their conditions need not be identical. Equal values may be shown once. Entries after “also recorded” stand apart in the source; their conditions may differ. Read-outs that look alike come from different tables or passages of the source.

Data set [1] has as its system HCV genotype Ib replicon (I389luc-ubi-neo/NS3-3′/ET) in Huh-luc/neo-ET cells. Type of data set: cell-based. Particulars: for Efficacy, Antagonism vol / Interaction: second drug in combination with miravirsen (SPC3649); for Efficacy, Antagonism vol: 95% confidence interval, median (≧3 experiments) or individual values; for Interaction: overall. The procedure:
The anti-viral efficacy and cellular toxicity of non-transfected antimiR oligonucleotide in combination with approved and experimental anti-HCV therapeutics (e.g. NM283, 2′-C-methylcytidine, and/or VX-222) (or other NS5B polymerase inhibitors) was determined in the reporter cell line Huh-luc/neo-ET. This cell line harbors the persistently replicating I389luc-ubi-neo/NS3-3′/ET replicon containing the firefly luciferase gene-ubiquitin-neomycin phosphotransferase fusion protein and EMCV IRES driven NS3-5B HCV coding sequences containing the ET tissue culture adaptive mutations (E1202G, T1208I, and K1846T). Eight dilutions of non-transfected antimiR oligonucleotide (bracketing the calculated EC50) were evaluated in triplicate on duplicate sets of three plates with five dilutions of each of the control compounds (bracketing the calculated EC50). One set of plates was used for the determination of cellular toxicity and the other set of plates was used for the determination of anti-viral efficacy. The efficacy and toxicity results was quantified with firefly luciferase activity and XTT dye reduction, respectively, and the results of the assay is imported into the Prichard and Shipman MacSynergy II software program. The MacSynery II analysis includes calculation of the dose response of the two (or more) compounds when used alone followed by calculation of the expected additive level of antiviral inhibition or toxicity when the compounds are used together based on the individual dose response curves. The expected level of activity at each of the concentration data points was compared to the experimentally determined antiviral activity in the assay. The expected activity was subtracted from the realized activity, yielding a negative, zero or positive value. These values are plotted as a three dimensional representation of the data and the result is reported as a two-factor value, expressing the combined average above the expected level of activity (synergy volume) and the combined average below the expected level of activity (antagonism volume). Combination analysis was performed two or more times for each pair of test compound and control substance.
The reporter cell line Huh-luc/neo-ET was obtained from Dr. Ralf Bartenschlager (Department of Molecular Virology, Hygiene Institute, University of Heidelberg, Germany) by ImQuest BioSciences. This cell line harbors the persistently replicating 1389luc-ubi-neo/NS3-3′IET replicon containing the firefly luciferase gene-ubiquitinneomycin phosphotransferase fusion protein and EMCV IRES driven NS3-5B HCV coding sequences containing the ET tissue culture adaptive mutations (E 1202G, T12081, and KI846T). A stock culture of the Huh-luc/neo-ET was expanded by culture in DMEM supplemented with 10% FBS, 2 mM glutamine, penicillin (100 IU/mL)/streptomycin (100 f·Ig/mL) and IX nonessential amino acids plus I mg/ml G418. Prior to plating, the cells were split 1:4 and cultured for two passages in the same medium plus 250 f·Ig/mL G418. The cells were treated with trypsin and enumerated by staining with trypan blue and seeded into 96-well tissue culture plates at a cell culture density 5.0×10^3 cells per well in a volume of 85 f·IL per well and incubated at […] in an environment of 5% CO2 for 24 hours. Six plates were established for the determination of combination efficacy (EC50) and cytotoxicity (TC50) for each of the compound combinations (three plates each for efficacy and toxicity). Following the 24 hour incubation, eight 2-fold serial dilutions of SPC3649 in cell culture medium without G418 were prepared (final in well high test concentration of 1.20 μM to 2.40 μM) and added to the cells and five 2-fold or 5-fold serial dilutions of control compounds in cell culture medium without G418 were prepared and added to the cells.

For data set [2], the system named is cytochrome 450. Put plainly: Metabolism by cytochrome 450 mechanisms. It counts as in vitro ADME.
For data set [3], the system named is HCV. As to the kind of experiment: HCV RNA suppression in vivo.
The test system of data set [4] is wild-type HCV genotype 1b replicon. As to the kind of experiment: Transient transfection replicon assay in Huh 7 cells (luciferase, 72 hours), wild-type. It counts as cell-based.
The test system of data set [5] is HCV genotype 1. Put plainly: Phase 2a clinical trial, miravirsen monotherapy. It counts as in vivo, human. Particulars: for mean of the maximum HCV RNA decline from baseline: 5 weekly doses subcutaneously over 29 days, chronic HCV genotype 1 patients. How it is done: Thirty-six treatment-naïve chronic HCV genotype 1 infected patients were enrolled into 3 sequential dosing cohorts and received 5 weekly doses of miravirsen 3, 5, or 7 mg/kg (n=27) or placebo (n=9) subcutaneously over 29 days and were followed up until week 18.

The subject of data set [6] is drug-resistant HCV genotype 1b replicons (NS3, NS5A, NS5B). How it is done:
(§1) The in vitro antiviral of miravirsen was evaluated against wild-type HCV genotype 1b replicon and HCV genotype 1b replicons constructed to contain key amino acid substitutions in NS3 protease (A156T, R155K), NS5B polymerase (S282T, M423I) and NS5A protein (Y93H) in transient transfection assays utilizing Huh 7 cells. […] Huh 7 cells were transfected with either the wild-type or the mutant RNA constructs by electroporation. Luciferase activity was measured 72 hours after compound treatment and EC50 values determined from dose-response curves. Fold resistance was expressed as the ratio of the EC50 for mutant HCV replicon to the EC50 for wild-type HCV replicon.
The in vitro antiviral of miravirsen was evaluated against wild-type HCV genotype 1b replicon and HCV replicons constructed to contain key amino acid substitutions in NS3 protease (A156T, R155K), NS5B polymerase (S282T, M423I) and NS5A protein (Y93H) in transient transfection assays. […] Huh 7 cells were transfected with either the wild type or the mutant RNA constructs by electroporation. Luciferase activity was measured 72 hours after compound treatment and EC50 values determined from dose-response curves. Fold resistance was expressed as the ratio of the EC50 for mutant HCV replicon to the EC50 for wild-type HCV replicon. Results are expressed as the mean of two individual experiments. […]

The subject of data set [7] is all HCV genotypes. Put plainly: Activity against HCV genotypes in vitro. Type of data set: cell-based.
The subject of data set [8] is HCV genotype 1b replicon NS5A Y93H. Type of data set: cell-based. Particulars: EC50 mutant / EC50 wild-type; mean of two experiments (individual values). The procedure: as §1
(§2) The in vitro antiviral of miravirsen was evaluated against wild-type HCV genotype 1b replicon and HCV replicons constructed to contain key amino acid substitutions in NS3 protease (A156T, R155K), NS5B polymerase (S282T, M423I) and NS5A protein (Y93H) in transient transfection assays. […] Huh 7 cells were transfected with either the wild type or the mutant RNA constructs by electroporation. Luciferase activity was measured 72 hours after compound treatment and EC50 values determined from dose-response curves. Fold resistance was expressed as the ratio of the EC50 for mutant HCV replicon to the EC50 for wild-type HCV replicon. Results are expressed as the mean of two individual experiments. In an initial set of experiments, the standard protocol was modified by adding compounds 24 hours after electroporation. […] In a third experiment cells were pretreated with miravirsen for 24 hours before electroporation with wild-type RNA constructs to determine if preincubation could result in increased miravirsen antiviral activity.

In data set [9] the test system is HCV genotype 1b replicon NS5B M423I. It counts as cell-based. Particulars: EC50 mutant / EC50 wild-type; mean of two experiments (individual values). How it is done:
as §1, §2

[10] abbreviates: chronic HCV genotype 1 infected patients.

In the case of `CCC[C@H](NC(=O)[C@@H]1[C@H]2CCC[C@H]2CN1C(=O)[C@@H](NC(=O)[C@@H](NC(=O)c1cnccn1)C1CCCCC1)C(C)(C)C)C(=O)C(=O)NC1CC1` [Telaprevir, (1S,3aR,6aS)-2-[(2S)-2-[[(2S)-2-Cyclohexyl-2-(pyrazine-2-carbonylamino)acetyl]amino]-3,3-dimethylbutanoyl]-N-[(3S)-1-(cyclopropylamino)-1,2-dioxohexan-3-yl]-3,3a,4,5,6,6a-hexahydro-1H-cyclopenta[c]pyrrole-1-carboxamide], the overall antiviral interaction result in data set [1] (in combination with ribavirin) is given as “inconclusive”. Also, the “Efficacy, Antag Vol” value in data set [1] (in combination with ribavirin, 95% confidence level, individual values) was 0.00/−200.2 μM^2% and 37.5/−22.6; μM^2%. Further, the “Efficacy, Antagonism vol” value in [1] is reported as 0/−3.2 μM^2%; in [1] (listed as telaprevir) it was −3.22 μM^2%. Besides, the Interaction entry in [1] is recorded as “Positive”; in [1] (listed as telaprevir) it was “positive interaction”.

For “5′-^mCs^ocsAs^otstsGs^oTs^ocsas^mCs^oas^mCs^ots^mCs^omC^o-3′ (CCATTGTCACACTCC; all phosphorothioate, sugars by position and methylation of C not given here; further chemistry not fully specified) [miravirsen]”, the “metabolism by cytochrome 450 mechanisms” value in data set [2] was “not metabolized by cytochrome 450 mechanisms”. In addition, in [3], the “HCV RNA suppression in vivo” value was “long-lasting HCV RNA suppression without emergence of resistance”. In addition, the EC50 in data set [4] (Huh 7 cells preincubated with miravirsen 24 hours before electroporation with wild-type RNA, read-out: EC50) was 25.6 µM; in [4] (wild-type HCV, transient transfection assays, read-out: average EC50) it was 36.7 µM; in [1] (previously reported against stable HCV cell lines, read-out: average EC50), 0.671 µM; in data set [1] (read-out: EC50 (+/− SD)), 0.67 µM. The overall antiviral interaction result in data set [1] (in combination with ribavirin) is given as “apparent synergy”. In addition, the results for the “mean of the maximum HCV RNA decline from baseline” value in data set [5] (3 mg/kg), in [5] (5 mg/kg) and in data set [5] (7 mg/kg) were 1.2 log10IU/mL, 2.9 log10IU/mL and 3.0 log10IU/mL, respectively. Further, the “patients who achieved undetectable HCV RNA” value in data set [5] (5 mg/kg cohort) is “One”; in [5] (7 mg/kg cohort) it was “four”. Besides, the dose-limiting adverse events result in data set [5] (3, 5 or 7 mg/kg) was “no dose-limiting adverse events”. Besides, in data set [5] (3, 5 or 7 mg/kg), the “escape mutations in the HCV genome miR-122 binding sites” value is listed as “no escape mutations were observed”. Besides, the “emergence of viral resistance” value in data set [5] (setting [10]) is recorded as “not seen”. For the same compound, the “reduction in HCV RNA” value is reported as “prolonged dose-dependent reductions in HCV RNA levels” in data set [5] (setting [10]) and “dose-dependent reduction in HCV RNA that was prolonged well beyond the end of active therapy” in data set [5] (chronic HCV genotype 1 infected patients, listed as Miravirsen). In data set [5] (setting [10]), the safety and tolerability result is “safe, well-tolerated”. Moreover, in data set [5] (four week clinical trial to assess safety and tolerability), the HCV titre entry is “below detection”. In data set [6] (all drug-resistant HCV variants tested), the “fold changes in resistance” value is recorded as “less than 2 fold”. Besides, the “antiviral activity against drug-resistant replicons” value in data set [6] (replicons resistant to NS3, NS5A and NS5B inhibitors) is reported as “broad antiviral activity”. The “activity against HCV genotypes in vitro” value in data set [7] is given as “activity against all HCV genotypes in vitro; also recorded: effective against all HCV genotypes in vitro”. In addition, the “fold change in susceptibility, NS5A Y93H” value in data set [8] was 0.9 (0.8, 0.9) fold. The “fold change in susceptibility, NS5B M423I” value in data set [9] is 1.7 (2.3, 1.0) fold.
